Data as given in patent publication US6342219B1 (Board of Regents, The University of Texas System, priority 1999, dated 2002).

Assays:
VEGF = target: T1, VEGF (Homo sapiens, UniProt P15692); experiment: Competition ELISA (epitope groups); type: binding
T1 sequence (P15692 27-191 isoform P15692-4): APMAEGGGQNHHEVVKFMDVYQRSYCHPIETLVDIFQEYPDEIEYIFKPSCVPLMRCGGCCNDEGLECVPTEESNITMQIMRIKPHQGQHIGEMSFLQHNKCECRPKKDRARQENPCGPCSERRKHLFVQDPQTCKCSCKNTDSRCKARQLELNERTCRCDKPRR
Procedure: Competition ELISA studies were performed by first labeling the antibodies with peroxidase according to the manufacturer's instructions (EZ-Link Activated Peroxidase, Pierce). […] Approximately 0.5-2.0 μg/ml of peroxidase labeled test antibody was incubated on the plate in the presence of either buffer alone, an irrelevant IgG, or the other anti-VEGF competing antibodies in a 10-100 fold excess.
The assay was done in triplicate at least twice for each combination of labeled and competitor antibody. Two antibodies were considered to be in the same epitope group if they cross-blocked each other's binding by greater than 80%.

[1] = tested on: denatured VEGF121 and VEGF165; experiment: Western blot analysis; type: binding, human; settings: reducing and non-reducing conditions
Procedure: The nitrocellulose membrane was blocked using Sea-Block PP82-41 (East Coast Biologics, Berwick, Me.), and probed with primary antibodies using a mini-blotter apparatus (Immunetics, Cambridge, Mass.). The membranes were developed after incubation with the appropriate peroxidase-conjugated secondary antibody by ECL enhanced chemiluminescence.
Western blot analyses of anti-VEGF antibodies were conducted by separating VEGF165 in the presence of 5% FCS using SDS-PAGE on a 12% gel and analyzing by a standard western blotting protocol using ECL detection. The primary antibodies were incubated with the nitrocellulose membrane using a multi-lane mini-blotter apparatus.

[2] = tested on: human tumor xenografts (NCI-H358, NCI-H460, HT29, L540); experiment: Immunohistochemistry, endothelial cell staining, human tumor xenografts; type: binding, human tumors grown in SCID mice; set-up: key: −, negative; +/−, very weak; 1+, weak; 2+, moderate; 3+, strong; 4+, very strong; settings: acetone fixed frozen sections
Procedure: Guinea pig line 10 hepatocellular carcinoma tumor cells (obtained from Dr. Ronald Neuman, NIH, Bethesda, Md.) were grown in strain 2 guinea pigs (NCI, Bethesda, Md.). The human tumors NCI-H358 non-small cell lung carcinoma (NSCLC), NCI-H460 NSCLC (both obtained from Dr. Adi Gazdar, UT Southwestern, Dallas, Tex.), HT29 colon adenocarcinoma (American Type Culture Collection), and L540CY Hodgkin's lymphoma (obtained from Professor V. Diehl, Cologne, Germany) were grown as xenografts in CB17 SCID mice (Charles River, Wilmington, Mass.).
(§1) Tumors were snap frozen in liquid nitrogen and stored at −70° C. Frozen samples of tumor specimens from patients were obtained from the National Cancer Institute Cooperative Human Tissue Network (Southern Division, Birmingham, Ala.). Immunohistochemistry was performed as described by Burrows et al. (1995).

[3] = tested on: human tumors from cancer patients; experiment: Immunohistochemistry, endothelial cell staining, human tumors; type: binding; set-up: key: −, negative; +/−, very weak; 1+, weak; 2+, moderate; 3+, strong; 4+, very strong; settings: acetone fixed frozen sections
Procedure: as §1

[4] = tested on: VEGF-mediated growth of ABAE cells; experiment: Endothelial cell growth assay (MTS); type: cell-based, bovine
Procedure: ABAE cells were grown in the presence of the various indicated antibodies and 0.5 nM VEGF. Growth after 4 days was determined calorimetrically by the enzymatic conversion of MTS (Owen's reagent) to a yellow formazan. […] Background was determined by growing cells without VEGF or antibody and was subtracted from the control and sample wells.
Adult bovine aortic endothelial (ABAE) cells were plated into 96-well tissue culture plates at 1500 cells/well and grown in the presence of 0.5 nM human VEGF with the addition of the various sample and control antibodies. Control wells received media with or without VEGF.
After 4 days of incubation, the cells were quantified by an MTS (3-(4,5-dimethylthiazol-2-yl)-5-(3-carboxylmethoxyphenyl)-2-(4-sulfophenyl)-2H-tetrazolium, inner salt) conversion assay, where MTS conversion to a formazan is proportional to cell number and can be followed by absorbance at 490 nm (Cell Titer 96 AQueous One Solution Cell Proliferation Assay, Promega, Madison, Wis.). The assay was performed according to the manufacturer's instructions.
Cell growth was estimated by subtracting the MTS conversion in cultures to which VEGF was not added. Results were expressed as a percentage of the MTS conversion in control cultures to which only VEGF was added (Buttke et al., 1993).

VEGFR2 (sFlk-1) = experiment: ELISA of VEGF binding to VEGFR2-coated wells; set-up: species or system mouse
Procedure: FIG. 2. […] The plate was then incubated with rabbit anti-VEGF (A-20, Santa Cruz Biotechnology, Inc.) at 1 μg/ml and developed using a peroxidase conjugated goat anti-rabbit antibody. Assays were performed in triplicate. Mean percent binding in the absence of antibody is shown, together with the standard deviation.
The assay was also performed by coating wells of a microtiter plate with either control or test IgG.

A673 rhabdomyosarcoma = experiment: In vivo tumor growth inhibition, newly implanted A673; set-up: species or system nu/nu mice
Procedure: FIG. 3A and FIG. 3B. […] FIG. 3A: 1×10^7 NCI-H358 NSCLC cells were injected subcutaneously into nu/nu mice on day 0. FIG. 3B: 5×10^6 A673 rhabdomyosarcoma cells were injected subcutaneously into nu/nu mice on day 0. Mice were injected i.p. with the indicated IgG on day 1 and 2 times/week thereafter. […] Tumors were measured 2-3 times per week. Mean and standard error is shown for the duration of the study in FIG. 3A, while data for the last day of the study (day 26) is shown in FIG. 3B.
Nu/nu mice were injected subcutaneously with either 1×10^7 NCI-H358 NSCLC cells or 5×10^6 A673 rhabdomyosarcoma cells on day 0. […] The tumors were then measured twice per wk for a period of approximately six wk for the NCI-H358 bearing mice and four wk for the A673 bearing mice. Tumor volume was calculated according to the formula: volume=L×W×H, where L=length, W=width, H=height.

Substance: 2C3: anti-VEGF monoclonal antibody, IgG2a, k, produced by hybridoma ATCC PTA 1595; blocks VEGF binding to VEGFR2 but not VEGFR1 [Clone 2C3]
- Cross-reactivity of 2C3 and A4.6.1 in competition studies (VEGF): not cross-reactive
- Epitope Group (VEGF; determined through competitive ELISA): 4
- Reactivity with denatured VEGF on western blots [1]: react
- Endothelial Cell Staining, Xenograft (various) [2]: −
- Endothelial Cell Staining, Hu Tumor (various) [3]: −
- Blocks VEGF-induced proliferation [4]: Yes
- Blocks VEGF from binding to VEGFR2 (VEGFR2 (sFlk-1)): Yes
- Effect on VEGF binding to VEGFR2 in ELISA (VEGFR2 (sFlk-1); 100-1000 fold excess): blocked
- Reduction in VEGF binding to VEGFR2 (VEGFR2 (sFlk-1); 100 fold molar excess over VEGF): about 74%
- VEGF bound to VEGFR2-coated wells, of the amount bound in the absence of antibody (VEGFR2 (sFlk-1); 1000-fold molar excess over VEGF (1 nM VEGF)): ~19%
- Reduction in VEGF binding to VEGFR2 (VEGFR2 (sFlk-1); 1000 fold molar excess over VEGF): about 81%
- Final tumor volume, A673 (A673 rhabdomyosarcoma; 100 μg i.p. 2 times per wk from day 1, controls approximately 1000 mm^3): approximately 150 mm^3
- Effect of lower doses on the growth of A673 tumors (A673 rhabdomyosarcoma; 10 or 1 μg twice per wk): did slow the growth
